Measurements published in US7008905B2, “Method of combating undesired plant growth on cereals” (BASF Aktiengesellschaft, priority 2000, dated 2006).

Legend:
Format in all cases: in vivo
[1] = tested on: Triticum aestivum variety “Monopol”; experiment: Post-emergence test, selectivity; details: 2–4 weeks after treatment, rating 0-100 (100=death), Table 6
Description: (§1) These acetone solutions are diluted with water and the resulting formulations applied at dosage levels equivalent of about 0.030 to 0.240 kg per hectare of test compound per pot. After spraying the plants are placed an greenhouse benches and are cared for in the usual manner, commensurate with conventional greenhouse practices. From 2 to 4 weeks after treatment, the seedling plants are examined and rated according to the rating system provided above. A rating 0 indicates growth as untreated control, a rating 100 indicates death.

[2] = tested on: Triticum aestivum variety “Kanzler”; experiment: Post-emergence test, selectivity; details: 2–4 weeks after treatment, rating 0-100 (100=death), Table 6
Description: as §1

[3] = tested on: Polygonum convolvulus; experiment: Post-emergence test, weed control; details: 2–4 weeks after treatment, rating 0-100 (100=death), Table 5
Description: as §1

[4] = tested on: Matricaria inodora; experiment: Post-emergence test, weed control; details: 2–4 weeks after treatment, rating 0-100 (100=death), Table 5
Description: as §1

[5] = tested on: HORVW; experiment: Pre-emergence test, selectivity; details: 3 weeks after treatment, rating 0-100 (100=death), Table 2
Description: (§2) The pre-emergence tests involve spraying a liquid formulation of the compound onto the soil in which the seeds of the plant species mentioned above has recently been sown.
(§3) The soil used in the tests is a prepared horticultural loam. The formulations used in the tests are prepared from solutions of the test compounds in acetone containing 0.4% by weight of an alkylphenol/ethylene oxide condensate available under the trade mark TRITON X-155.
(§4) These acetone solutions are diluted with water and the resulting formulations applied at dosage levels corresponding to 15 g, 30 g, 60 g, 120 g or 240 g of active material per hectare in a volume equivalent to 900 liters per hectare. In these tests untreated sown soil is used as control. The herbicidal effects of the test compounds are assessed visually three weeks after spraying the soil and are recorded an a 0 to 100 scale. A rating 0 indicates growth as untreated control, a rating 100 indicates death. An increase of 10 unit an the linear scale approximates to a 10% increase in the level of effect. The results of the assessment are set out in Tables 1 to 4.

[6] = tested on: Hordeum vulgare variety “Mammut”; experiment: Pre-emergence test, selectivity; details: 3 weeks after treatment, rating 0-100 (100=death), Table 2
Description: as §2, §3, §4

[7] = tested on: Triticum aestivum variety “Monopol”; experiment: Pre-emergence test, selectivity; details: 3 weeks after treatment, rating 0-100 (100=death), Table 2
Description: as §2, §3, §4

[8] = tested on: Triticum aestivum variety “Kanzler”; experiment: Pre-emergence test, selectivity; details: 3 weeks after treatment, rating 0-100 (100=death), Table 2
Description: as §2, §3, §4

[9] = tested on: Poa annua; experiment: Pre-emergence test, weed control; details: 3 weeks after treatment, rating 0-100 (100=death), Table 1
Description: as §2, §3
(§5) In these tests untreated sown soil is used as control. The herbicidal effects of the test compounds are assessed visually three weeks after spraying the soil and are recorded an a 0 to 100 scale. A rating 0 indicates growth as untreated control, a rating 100 indicates death. An increase of 10 unit an the linear scale approximates to a 10% increase in the level of effect. The results of the assessment are set out in Tables 1 to 4.

[10] = tested on: Stellaria media; experiment: Pre-emergence test, weed control; details: 3 weeks after treatment, rating 0-100 (100=death), Table 1
Description: as §2, §3, §5

[11] = tested on: Alopecurus myosuroides; experiment: Pre-emergence test, weed control; details: 3 weeks after treatment, rating 0-100 (100=death), Table 1
Description: as §2, §3, §5

[12] = tested on: Setaria viridis; experiment: Pre-emergence test, weed control; details: 3 weeks after treatment, rating 0-100 (100=death), Table 1
Description: as §2, §3, §5

[13] = tested on: Polygonum convolvulus; experiment: Pre-emergence test, weed control; details: 3 weeks after treatment, rating 0-100 (100=death), Table 1
Description: as §2, §3, §5

[14] = tested on: Apera spica-venti; experiment: Pre-emergence test, weed control; details: 3 weeks after treatment, rating 0-100 (100=death), Table 1
Description: as §2, §3, §5

[15] = tested on: Lamium purpureum; experiment: Pre-emergence test, weed control; details: 3 weeks after treatment, rating 0-100 (100=death), Table 1
Description: as §2, §3, §5

[16] = tested on: Lolium perenne; experiment: Pre-emergence test, weed control; details: 3 weeks after treatment, rating 0-100 (100=death), Table 1
Description: as §2, §3, §5

[17] = tested on: Galium aparine; experiment: Pre-emergence test, weed control; details: 3 weeks after treatment, rating 0-100 (100=death), Table 1
Description: as §2, §3, §5

[18] = tested on: Veronica persica; experiment: Pre-emergence test, weed control; details: 3 weeks after treatment, rating 0-100 (100=death), Table 1
Description: as §2, §3, §5

[19] = tested on: Matricaria inodora; experiment: Pre-emergence test, weed control; details: 3 weeks after treatment, rating 0-100 (100=death), Table 1
Description: as §2, §3, §5

Cc1cnc(-c2ccc(C(F)(F)F)cc2)nc1Oc1cccc(C(F)(F)F)c1 [REF-1]
TRZAWM rating (Selectivity) ([1]; 0.03 kg/ha): 15 | TRZAWM rating (Selectivity) ([1]; 0.06 kg/ha): 22 | TRZAWM rating (Selectivity) ([1]; 0.12 kg/ha): 30 | TRZAWM rating (Selectivity) ([1]; 0.24 kg/ha): 45 | TRZAWK rating (Selectivity) ([2]; 0.03 kg/ha): 18 | TRZAWK rating (Selectivity) ([2]; 0.06 kg/ha): 25 | TRZAWK rating (Selectivity) ([2]; 0.12 kg/ha): 30 | TRZAWK rating (Selectivity) ([2]; 0.24 kg/ha): 40 | POLCO weed control rating ([3]; 0.030 kg/ha): 15 | POLCO weed control rating ([3]; 0.120 kg/ha): 25 | POLCO weed control rating ([3]; 0.240 kg/ha): 70 | MATIN weed control rating ([4]; 0.030 kg/ha): 70 | MATIN weed control rating ([4]; 0.060 kg/ha): 75 | MATIN weed control rating ([4]; 0.120 kg/ha): 75 | MATIN weed control rating ([4]; 0.240 kg/ha): 85 | HORVW rating (Selectivity) ([5]; 0.015 kg/ha): 35 | HORVW rating (Selectivity) ([5]; 0.030 kg/ha): 45 | HORVW rating (Selectivity) ([5]; 0.060 kg/ha): 55 | HORVW rating (Selectivity) ([5]; 0.120 kg/ha): 60 | HORVW rating (Selectivity) ([5]; 0.240 kg/ha): 65 | HORVWM rating (Selectivity) ([6]; 0.015 kg/ha): 25 | HORVWM rating (Selectivity) ([6]; 0.030 kg/ha): 45 | HORVWM rating (Selectivity) ([6]; 0.060 kg/ha): 45 | HORVWM rating (Selectivity) ([6]; 0.120 kg/ha): 60 | HORVWM rating (Selectivity) ([6]; 0.240 kg/ha): 65 | TRZAWM rating (Selectivity) ([7]; 0.015 kg/ha): 3 | TRZAWM rating (Selectivity) ([7]; 0.030 kg/ha): 12 | TRZAWM rating (Selectivity) ([7]; 0.060 kg/ha): 25 | TRZAWM rating (Selectivity) ([7]; 0.120 kg/ha): 30 | TRZAWM rating (Selectivity) ([7]; 0.240 kg/ha): 45 | TRZAWK rating (Selectivity) ([8]; 0.015 kg/ha): 3 | TRZAWK rating (Selectivity) ([8]; 0.030 kg/ha): 10 | TRZAWK rating (Selectivity) ([8]; 0.060 kg/ha): 25 | TRZAWK rating (Selectivity) ([8]; 0.120 kg/ha): 25 | TRZAWK rating (Selectivity) ([8]; 0.240 kg/ha): 40 | POAAN weed control rating ([9]; 0.015 kg/ha): 98 | POAAN weed control rating ([9]; 0.030 kg/ha): 100 | POAAN weed control rating ([9]; 0.060 kg/ha): 100 | POAAN weed control rating ([9]; 0.1 kg/ha): 100 | POAAN weed control rating ([9]; 0.240 kg/ha): 100 | STEME weed control rating ([10]; 0.030 kg/ha): 90 | STEME weed control rating ([10]; 0.060 kg/ha): 100 | STEME weed control rating ([10]; 0.1 kg/ha): 100 | STEME weed control rating ([10]; 0.240 kg/ha): 100 | ALOMY weed control rating ([11]; 0.015 kg/ha): 65 | ALOMY weed control rating ([11]; 0.030 kg/ha): 92 | ALOMY weed control rating ([11]; 0.060 kg/ha): 100 | ALOMY weed control rating ([11]; 0.1 kg/ha): 100 | ALOMY weed control rating ([11]; 0.240 kg/ha): 100 | SETVI weed control rating ([12]; 0.015 kg/ha): 93 | SETVI weed control rating ([12]; 0.030 kg/ha): 100 | SETVI weed control rating ([12]; 0.060 kg/ha): 100 | SETVI weed control rating ([12]; 0.1 kg/ha): 100 | SETVI weed control rating ([12]; 0.240 kg/ha): 100 | POLCO weed control rating ([13]; 0.015 kg/ha): 92 | POLCO weed control rating ([13]; 0.030 kg/ha): 93 | POLCO weed control rating ([13]; 0.060 kg/ha): 100 | POLCO weed control rating ([13]; 0.1 kg/ha): 100 | POLCO weed control rating ([13]; 0.240 kg/ha): 100 | APESV weed control rating ([14]; 0.015 kg/ha): 100 | APESV weed control rating ([14]; 0.030 kg/ha): 100 | APESV weed control rating ([14]; 0.060 kg/ha): 100 | APESV weed control rating ([14]; 0.1 kg/ha): 100 | APESV weed control rating ([14]; 0.240 kg/ha): 100 | LAMPU weed control rating ([15]; 0.015 kg/ha): 100 | LAMPU weed control rating ([15]; 0.030 kg/ha): 100 | LAMPU weed control rating ([15]; 0.060 kg/ha): 100 | LAMPU weed control rating ([15]; 0.1 kg/ha): 100 | LAMPU weed control rating ([15]; 0.240 kg/ha): 100 | LOLPE weed control rating ([16]; 0.015 kg/ha): 80 | LOLPE weed control rating ([16]; 0.030 kg/ha): 95 | LOLPE weed control rating ([16]; 0.060 kg/ha): 99 | LOLPE weed control rating ([16]; 0.1 kg/ha): 100 | LOLPE weed control rating ([16]; 0.240 kg/ha): 100 | GALAP weed control rating ([17]; 0.015 kg/ha): 5 | GALAP weed control rating ([17]; 0.030 kg/ha): 15 | GALAP weed control rating ([17]; 0.060 kg/ha): 50 | GALAP weed control rating ([17]; 0.1 kg/ha): 75 | GALAP weed control rating ([17]; 0.240 kg/ha): 95 | VERPE weed control rating ([18]; 0.015 kg/ha): 100 | VERPE weed control rating ([18]; 0.030 kg/ha): 100 | VERPE weed control rating ([18]; 0.060 kg/ha): 100 | VERPE weed control rating ([18]; 0.1 kg/ha): 100 | VERPE weed control rating ([18]; 0.240 kg/ha): 100 | MATIN weed control rating ([19]; 0.015 kg/ha): 99 | MATIN weed control rating ([19]; 0.030 kg/ha): 99 | MATIN weed control rating ([19]; 0.060 kg/ha): 100 | MATIN weed control rating ([19]; 0.1 kg/ha): 100 | MATIN weed control rating ([19]; 0.240 kg/ha): 100
